Values joined by “and” are separate entries in the source; they are usually repeats but may differ in a detail not shown here. Equal values may be shown once. Bounds are passed on as bounds.

Holding throughout (assay type): physicochemical
Data set [1] in a line: Three-electrode cyclic voltammetry of quinones in 1 M KOH (incl. Pourbaix diagram). The note with it: for equilibrium cell potential vs. ferro/ferricyanide suggested by cyclic voltammograms: 1 M KOH, 100 mV/s, glassy carbon electrode; for equilibrium potential of couple with ferrocyanide compared with 2,6-DHAQ/ferrocyanide: CV at 100 mV/s on glassy carbon electrode. As for the experimental part: FIG. 1. Pourbaix diagram of 2,6-DHAQ. […] FIGS. 2a-d. a. Cyclic voltammogram of 2 mM 2,6-DHAQ (left curve) and ferrocyanide (right curve) scanned at 100 mV/s; arrows indicate scan direction. Dotted line represents cyclic voltammogram of 1 M KOH background scanned at 100 mV/s. b and c. Cyclic voltammograms of 2,3,6,7-THAQ (left curve in b) and 1,5-DMAQ (left curve in c), respectively, plotted along ferrocyanide (right curve) scanned at 100 mV/s on glassy carbon electrode.
Electrochemical characterization. A glassy carbon electrode was used for three-electrode cyclic voltammetry tests, except in the electrochemical window tests where graphite foil was used to mimic the condition of porous carbon paper. Rotating-disk electrode (RDE) experiments of 2,6-DHAQ (1 mM) in 1 M KOH solution were performed using a BASi RDE-2 rotating-disk electrode system (FIG. 3a). All tests were carried out using a Gamry Reference 3000 potentiostat, with a Pt counter electrode and an Ag/AgCI reference electrode (equilibrated with 3M NaCI, 213 mV vs. standard hydrogen electrode. A Levich plot was constructed from the RDE data by plotting the mass-transport limited current vs. the square root of the rotation rate (FIG. 3b). The diffusion coefficient of 2,6-DHAQ was calculated for each of three runs from the slope of the line fit to the Levich equation (Bard, A. J. & Faulkner, L. R. Electrochemical Methods: Fundamentals and Applications. (Wiley, 2000)). The kinematic viscosity was taken to be 1.08×10^−6 m^2 s^-1 (Hitchcock, L. B. & Mcllhenny, J. S. Ind. Eng. Chem. 27, 461-466 (1935)). The resulting value of the diffusion coefficient is 4.8(2) x 10^-6 cm^2 s^-1.

A short description of data set [2]: Cyclic voltammetry of FMN and ferrocyanide. The note with it: 2 mM, 100 mV/s, glassy carbon electrode. On the procedure: FIG. 5. Cyclic voltammogram of 2 mM FMN (left curve) and ferrocyanide (right curve) scanned at 100 mV/s on glassy carbon electrode; arrows indicate scan direction.
Before and during the test, the electrolytes were purged with UHP nitrogen to remove and then keep out atmospheric oxygen. […] Galvanostatic cycling shown in […]

Data set [3] can be described thus: Chemical and electrochemical stability by proton NMR. As to conditions: sensitivity level of 1%; after 30 days in 5 M KOH at 100° C. and after 100 charge-discharge cycles (FIGS. 15a-c). As for the experimental part:
FIGS. 15a-15c. Chemical and electrochemical stability of 2,6-DHAQ. ^1H NMR (500 MHz, DMSO-d6) spectra. a. 2,6-DHAQ 6: 8.04 (d, 2H, J═8.3 Hz, 2 x ArCH), 7.47 (d, 2H, J═2.5 Hz, 2 x ArCH), 7.19 (dd, 2H, J═8.3, 2.5 Hz, 2 x ArCH). b. 2,6-DHAQ, after 30 days heating in 5 M KOH solution at 100° C. c. 2,6-DHAQ, after 100 charge-discharge cycles.
The cell was cycled at a constant current density of ±0.1 A cm^-2 for 100 cycles (FIG. 14a). […] A 0.1% loss in capacity per cycle was observed during cycling, which appears to be a continuous loss of electro-active species over the 100 cycles (FIG. 14b). We explored three possible loss mechanisms: chemical decomposition, electrolyte crossover through the membrane, and leakage from the pumping system. […] This observation places an upper limit on crossover of 0.8% of the DHAQ, implying a crossover current density of <2.5 μA cm^-2 (FIGS. 16a and 16b). […] A source of leakage was readily apparent but not quantifiable at the exit of the humidified nitrogen bubbling through the negolyte to prevent energy loss by permeation of atmospheric oxygen. Coloration could also be found on the gaskets, indicating a likely site of electrolyte leakage (FIGS. 17a and 17b).

Data set [4] is described as follows: Rotating-disk electrode study / Levich plot. As to conditions: 1 mM in 1 M KOH, Levich equation, three runs. As for the experimental part: FIGS. 3a-3d. a. Rotating disk electrode study of the reduction of a 1 mM solution of 2,6-DHAQ in 1 M KOH on a glassy carbon electrode at various rotation rates (curves from top to bottom in legend). b. Levich plot of 1 mM 2,6-DHAQ in 1 M KOH. Data are an average of the current at -1.187 V vs. SHE for each of three runs; error bars indicate the standard deviation. c. Cyclic voltammogram of 1 mM 2,6-DHAQ in 1 M KOH (solid line). Dashed lines represent simulated cyclic voltammograms of a two-electron reduction of varying electrochemical rate constant ko and a reduction potential Eo of -0.684 V vs. SHE. The simulations assumed a ═0.5. The scan rate in all cases was 25 mV s^-1. d. […]
Electrochemical characterization. […] All tests were carried out using a Gamry Reference 3000 potentiostat, with a Pt counter electrode and an Ag/AgCI reference electrode (equilibrated with 3M NaCI, 213 mV vs. standard hydrogen electrode. A Levich plot was constructed from the RDE data by plotting the mass-transport limited current vs. the square root of the rotation rate (FIG. 3b). The diffusion coefficient of 2,6-DHAQ was calculated for each of three runs from the slope of the line fit to the Levich equation (Bard, A. J. & Faulkner, L. R. Electrochemical Methods: Fundamentals and Applications. (Wiley, 2000)). The kinematic viscosity was taken to be 1.08×10^−6 m^2 s^-1 (Hitchcock, L. B. & Mcllhenny, J. S. Ind. […]

A short description of data set [5]: Cyclic voltammogram modeling (simulated fit to measured CV). As for the experimental part:
FIGS. 3a-3d. a. Rotating disk electrode study of the reduction of a 1 mM solution of 2,6-DHAQ in 1 M KOH on a glassy carbon electrode at various rotation rates (curves from top to bottom in legend). b. Levich plot of 1 mM 2,6-DHAQ in 1 M KOH. Data are an average of the current at -1.187 V vs. SHE for each of three runs; error bars indicate the standard deviation. c. Cyclic voltammogram of 1 mM 2,6-DHAQ in 1 M KOH (solid line). Dashed lines represent simulated cyclic voltammograms of a two-electron reduction of varying electrochemical rate constant ko and a reduction potential Eo of -0.684 V vs. SHE. The simulations assumed a ═0.5. The scan rate in all cases was 25 mV s^-1. d. Cyclic voltammogram of 1 mM 2,6-DHAQ in 1 M KOH (solid line). Dashed lines represent the simulated components of two successive one-electron reductions with reduction potentials of -0.657 V vs. SHE and -0.717 V vs. SHE, respectively, as well as the simulated total current arising from such a reaction. Each simulated reduction has a rate constant ko ═7 x 10^-3 cm 5^-1. The simulations assumed a ═0.5.
Cyclic voltammogram modeling. Computation was performed using Mathematica 10.0.1.0 according to algorithms by Oldham and Myland (Oldham, K. B. & Myland, J. C. Electrochim. Acta 56, 10612-10625 (2011)). The diffusivity of 2,6-DHAQ and both the one-electron and two-electron reduction products were assumed to be 4.8 x 10^-6 cm^2 s^-1, based on our RDE studies. The temperature was 293 K. Time was discretized into 40 ms increments, and the current at each time was computed based on the sum of previous currents as described by Oldham (Oldham, K. B. & Myland, J. C. Electrochim. Acta 56, 10612-10625 (2011)).
To model the two-electron reduction process (FIG. 1), the Butler-Volmer equation with the number of electrons n ═2 was used in place of Oldham equation (4:5), and the right-hand-side of equation (8:3) was multiplied by 2 to account for a two-electron reduction (Bard, A. J. & Faulkner, L. R. Electrochemical Methods: Fundamentals and Applications. (Wiley, 2000); Oldham, K. B. & Myland, J. C. Electrochim. Acta 56, 10612-10625 (2011)). The reduction potential was assumed to be equal to the voltage equidistant from the two peaks on the measured cyclic voltammogram (-0.684 V vs. SHE) and the charge transfer coefficient a was assumed to be 0.5. The electrochemical rate constant ko was then varied from 10^-3 cm s^-1 to 10^-5 cm s^-1.
To model the two successive one-electron reductions (FIG. 3d), Oldham equations (12:13) and (12:14) were used (Oldham, K. B. & Myland, J. C. Electrochim. Acta 56, 10612-10625 (2011)). The charge transfer coefficients al and a2 were assumed to be equal to 0.5, and the electrochemical rate constants for the two reductions were assumed equal. The values of the single rate constant and the first and second reduction potentials were permitted to vary freely. A reasonable fit to the experimental data was observed when the reduction potential of the first reduction Ei ═-0.657 V vs. SHE, the reduction potential of the second reduction E2 ═-0.717 V vs. SHE, and the two electrochemical rate constants ko,i and ko,2 both equaled 7×10^−3 cm s^-1, a value very close to that observed in other anthraquinone systems (Huskinson, B. et al. Nature 505, 195-198 (2014)).

Data set [6] is described as follows: Crossover study: CV of ferro-ferricyanide posolyte after 100 charge-discharge cycles. The note with it: for fraction of 2,6-DHAQ crossed over the membrane into the posolyte: Nafion membrane. On the procedure: FIGS. 16a-16b. Test of electrolyte permeation through membrane. Full (a) and zoomed in (b) cyclic voltammograms of 0.4 M ferro-ferricyanide electrolyte after 100 charge-discharge cycles. Same posolyte to which was added 3.9 mM 2,6-DHAQ, and 7.6 mM 2,6-DHAQ.
Crossover study. The concentration of crossed-over 2,6-DHAQ into the ferro-ferricyanide posolyte solution was evaluated using CV. After 100 charge-discharge cycles, the ferro-ferricyanide posolyte solution (5 mL) was collected and analyzed by CV (scan at 100 mV/s. The correlation between the CV signal and 2,6-DHAQ concentration was established by titrating known amounts of 2,6-DHAQ (12 mg or […]) to the cycled posolyte followed by controlled dilution. The comparison indicates <10 mM 2,6-DHAQ had crossed over into the posolyte, which corresponds to <2% of the 2,6-DHAQ originally assembled into the negolyte.

The nature of data set [7]: Solubility measurement by UV-Vis absorbance at 413 nm. As to conditions: 1 M KOH solution, pH 14, aqueous buffer, thermodynamic from solid; room temperature, in 1 M KOH. On the procedure:
Solubility measurement. Room temperature solubility in 1 M KOH solution was measured by measuring the absorbance at 413 nm and comparing to an absorbance-vs.-concentration calibration curve determined by preparing known concentrations of 2,6-DHAQ. UV-Vis spectrophotometry measurements were performed using an Agilent Cary 60 spectrophotometer equipped with a Quantum
Northwest T2 temperature regulator. Appropriate aliquots of 2,6-DHAQ stock solution were added to 1 M KOH blank solution and their UV-Vis absorbance spectra measured. A saturated solution of 2,6-DHAQ in 1 M KOH was prepared by adding 2,6-DHAQ potassium salt into 1 M KOH solution (10 mL) until a thin layer of precipitate formed, the remaining solution was diluted by known proportions, and the absorbance of the resulting solution was compared to the calibration curve.

Setting [8] is: 1 mM in 1 M KOH, simulated fit, two successive one-electron reductions.
The mark [9] stands for this setting: after 100 charge-discharge cycles.

On to `O=C1c2cc(O)c(O)cc2C(=O)c2cc(O)c(O)cc21` [2,3,6,7-THAQ, 2,3,6,7-tetrahydroxy-9,10-anthraquinone], for which, in data set [1], the “equilibrium cell potential vs. ferro/ferricyanide suggested by cyclic voltammograms” value is given as approximately 1.35 V and the “equilibrium potential of couple with ferrocyanide compared with 2,6-DHAQ/ferrocyanide” value was “higher equilibrium potential than 2,6-DHAQ/ferrocyanide”.
Regarding `Cc1cc2nc3c(=O)[nH]c(=O)nc-3n(C[C@@H](O)[C@@H](O)[C@@H](O)COP(=O)(O)O)c2cc1C` [FMN, riboflavin 5′ phosphate], the “overall peak separation of cyclic voltammograms vs. ferrocyanide” value in data set [2] amounted to 1 V.
As for `O=C1c2ccc(O)cc2C(=O)c2ccc(O)cc21` [2,6-DHAQ, 2,6-dihydroxy-9,10-anthraquinone], the “equilibrium cell potential vs. ferro/ferricyanide suggested by cyclic voltammograms” value in data set [1] is listed as 1.2 V. For the same compound, the “decomposition by proton NMR” value in data set [3] is on record as “no decomposition product”. Also, the diffusion coefficient in data set [4] was 4.8(2) x 10^-6 cm^2 s^-1. Moreover, in data set [5] (1 mM in 1 M KOH, two-electron reduction model), the “reduction potential E0 (voltage equidistant from the two CV peaks)” value is recorded as -0.684 V vs. SHE. In data set [5] (setting [8]), the “reduction potential of the first one-electron reduction” value is on record as -0.657 V vs. SHE and the “reduction potential of the second one-electron reduction” value is recorded as -0.717 V vs. SHE. Further, the “rate constant ko of each simulated reduction” value in data set [5] (FIG. 3d legend, simulated fit) is recorded as 7 x 10^-3 cm 5^-1. In addition, the “separation of the potentials of the two one-electron reductions” value in data set [5] (pH 14) is recorded as 0.06 V. Besides, in data set [5] (simulated fit, charge transfer coefficient 0.5), the “electrochemical rate constant k0 (both reductions)” value is 0.007 cm/s. Further, in data set [6] (setting [9]), the “concentration of 2,6-DHAQ crossed over into the posolyte” value was less than 10000 µM; the “fraction of 2,6-DHAQ crossed over the membrane into the posolyte” value was < 1% and < 2%. The “fraction of 2,6-DHAQ crossed over the membrane into the posolyte” value in data set [6] (after 100 charge-discharge cycles, listed as DHAQ) is given as not above 0.8%. In data set [6] (implied by crossover upper limit), this compound registered a crossover current density of less than 2.5 μA cm^-2. Further, the solubility in data set [7] was more than 600 mM.
In the case of `Cc1c(O)ccc2c1C(=O)c1ccc(O)c(C)c1C2=O` [1,5-DMAQ, 1,5-dimethyl-2,6-dihydroxy-9,10-anthraquinone], in data set [1], the “equilibrium cell potential vs. ferro/ferricyanide suggested by cyclic voltammograms” value is recorded as approximately 1.35 V and the “equilibrium potential of couple with ferrocyanide compared with 2,6-DHAQ/ferrocyanide” value is “higher equilibrium potential than 2,6-DHAQ/ferrocyanide”.

In general, solubility refers to the dissolved amount per volume that the medium holds. A low value points to a poorly soluble substance.

These data come from patent publication US20180048011A1, “HIGH pH ORGANIC FLOW BATTERY” (President and Fellows of Harvard College, priority 2015, published 2018).
